What was measured:
[1] = test system: antibodies in sera from SARS patients (sera 1a, 1b, 2, 6, 37, 62, London, SARS-yellow, SARS-green); type: binding, human; set-up: Binding of serum 6 to linear peptides of protein X1 of SARS-CoV Urbani / Binding of serum 37 to linear peptides of protein X1 of SARS-CoV Urbani / Binding of serum 6 to looped/cyclic peptide (PEPSCAN-ELISA) / Binding of serum 37 to looped/cyclic peptide (PEPSCAN-ELISA) / Binding of serum 37 to looped/cyclic peptides of protein X1 of SARS-CoV Urbani / Binding of serum 6 to linear peptides of protein X2 / Binding of serum 37 to linear peptides of protein X2 / Binding of serum 37 to looped/cyclic peptides of protein X2 of SARS-CoV Urbani / Binding of serum 6 to linear peptides of protein M of SARS-CoV Urbani / Binding of serum 37 to linear peptides of protein M of SARS-CoV Urbani / Binding of serum 6 to looped/cyclic peptides of protein M of SARS-CoV Urbani / Binding of serum 37 to looped/cyclic peptides of protein M of SARS-CoV Urbani / Binding of serum 6 to linear peptides of protein X3 of SARS-CoV Urbani / Binding of serum 37 to linear peptides of protein X3 of SARS-CoV Urbani / Binding of serum 37 to looped/cyclic peptides of protein X3 of SARS-CoV Urbani / Binding of serum 6 to linear peptides of protein X4 of SARS-CoV Urbani / Binding of serum 37 to linear peptides of protein X4 of SARS-CoV Urbani / Binding of serum 37 to looped/cyclic peptides of protein X4 of SARS-CoV Urbani / Binding of serum 6 to linear peptides of protein X5 of SARS-CoV Urbani / Binding of serum 37 to linear peptides of protein X5 of SARS-CoV Urbani / Binding of serum 37 to looped/cyclic peptides of protein X5 of SARS-CoV Urbani / Binding of serum 6 to linear peptides of protein N of SARS-CoV Urbani / Binding of serum 37 to linear peptides of protein N of SARS-CoV Urbani / Binding of serum 6 to linear peptide (PEPSCAN-ELISA) / Binding of serum 1a to looped/cyclic peptides of protein N of SARS-CoV Urbani / Binding of serum 1b to looped/cyclic peptides of protein N of SARS-CoV Urbani / Binding of serum 2 to looped/cyclic peptides of protein N of SARS-CoV Urbani / Binding of serum 6 to looped/cyclic peptides of protein N of SARS-CoV Urbani / Binding of serum 37 to looped/cyclic peptides of protein N of SARS-CoV Urbani / Binding of serum 62 to looped/cyclic peptides of protein N of SARS-CoV Urbani / Binding of serum London to looped/cyclic peptides of protein N of SARS-CoV Urbani / Binding of serum SARS-green to looped/cyclic peptides of protein N of SARS-CoV Urbani: unit not given here
[2] = test system: control sera (pooled serum of ten healthy LUMC hospital workers; commercial negative donor pooled serum from the Dutch bloodbank); type: binding, human; set-up: Binding of Control serum LUMC to linear peptides / Binding of Control serum Blood-bank to linear peptides / Binding of Control serum LUMC to looped peptides / Binding of Control Serum Blood-Bank to Looped peptides / Binding of Control serum LUMC to linear peptides of the protein M of SARS-CoV Urbani / Binding of Control serum Blood-bank to linear peptides of the protein M of SARS-CoV Urbani / Binding of Control serum LUMC to looped peptides of the protein M of SARS-CoV Urbani / Binding of Control Serum Blood-Bank to Looped peptides of the protein M of SARS-CoV Urbani: unit not given here
[3] = test system: rabbit serum obtained by immunizing a rabbit with the SARS-CoV strain Frankfurt 1; type: binding; set-up: Binding of a rabbit serum to linear peptides / Binding of a rabbit serum to looped peptides / Rabbit serum linear peptides / Rabbit serum looped peptides / Binding of a rabbit serum to linear peptides of protein N of SARS-CoV Urbani (Rabbit serum linear peptides) / Binding of a rabbit serum to looped/cyclic peptides of protein N of SARS-CoV Urbani (Rabbit serum looped peptides): unit not given here

For RCDIKDLPKEITVAT, the “Binding of serum 1a to linear peptides of protein M of SARS-CoV Urbani” value [1] was 0.7, the “Binding of serum 1a to looped/cyclic peptides of protein M of SARS-CoV Urbani” value [1] was 0.6 and the “Binding of serum 1b to linear peptides of protein M of SARS-CoV Urbani” value [1] was 0.5. The “Binding of serum 1b to looped/cyclic peptides of protein M of SARS-CoV Urbani” value [1] was 0.4, the “Binding of serum 2 to linear peptides of protein M of SARS-CoV Urbani” value [1] was 0.5 and the “Binding of serum 2 to looped/cyclic peptides of protein M of SARS-CoV Urbani” value [1] was 0.6. For the same sequence, the “Binding of serum 6 to linear peptides of protein M of SARS-CoV Urbani” value [1] was 0.3, the “Binding of serum 6 to looped/cyclic peptides of protein M of SARS-CoV Urbani” value [1] was 0.6 and the “Binding of serum 37 to linear peptides of protein M of SARS-CoV Urbani” value [1] was 0.5. For the same sequence, the “Binding of serum 37 to looped/cyclic peptides of protein M of SARS-CoV Urbani” value [1] was 0.6, the “Binding of serum 62 to linear peptides of protein M of SARS-CoV Urbani” value [1] was 0.6 and the “Binding of serum 62 to looped/cyclic peptides of protein M of SARS-CoV Urbani” value [1] was 0.6. The “Binding of serum London to linear peptides of protein M of SARS-CoV Urbani” value [1] was 0.3, the “Binding of serum London to looped/cyclic peptides of protein M of SARS-CoV Urbani” value [1] was 0.2 and the “Binding of serum SARS-green to linear peptides of protein M of SARS-CoV Urbani” value [1] was 0.5. For the same sequence, the “Binding of serum SARS-green to looped/cyclic peptides of protein M of SARS-CoV Urbani” value [1] was 0.4, the “Binding of serum SARS-yellow to linear peptides of protein M of SARS-CoV Urbani” value [1] was 0.2 and the “Binding of serum SARS-yellow to looped/cyclic peptides of protein M of SARS-CoV Urbani” value [1] was 0.7. For the same sequence, the “Binding of Control Serum Blood-Bank to Looped peptides of the protein M of SARS-CoV Urbani” value [2] was 0.6, the “Binding of Control serum Blood-bank to linear peptides of the protein M of SARS-CoV Urbani” value [2] was 0.7 and the “Binding of Control serum LUMC to linear peptides of the protein M of SARS-CoV Urbani” value [2] was 0.5. For the same sequence, the “Binding of Control serum LUMC to looped peptides of the protein M of SARS-CoV Urbani” value [2] was 0.7, the “Rabbit serum linear peptides” value [3] was 0.0 and the “Rabbit serum looped peptides” value [3] was 0.3.
QTLVLKMLHSSSLTS was tested, and the “Binding of serum 1a to linear peptides of protein X2” value [1] was 0.7, the “Binding of serum 1a to looped/cyclic peptides of protein X2 of SARS-CoV Urbani” value [1] was 0.6 and the “Binding of serum 1b to linear peptides of protein X2” value [1] was 0.5. For the same sequence, the “Binding of serum 1b to looped/cyclic peptides of protein X2 of SARS-CoV Urbani” value [1] was 0.4, the “Binding of serum 2 to linear peptides of protein X2” value [1] was 0.5 and the “Binding of serum 2 to looped/cyclic peptides of protein X2 of SARS-CoV Urbani” value [1] was 0.3. For the same sequence, the “Binding of serum 6 to linear peptides of protein X2” value [1] was 0.5, the “Binding of serum 6 to looped/cyclic peptides of protein X2 of SARS-CoV Urbani” value [1] was 0.5 and the “Binding of serum 37 to linear peptides of protein X2” value [1] was 0.5. For the same sequence, the “Binding of serum 37 to looped/cyclic peptides of protein X2 of SARS-CoV Urbani” value [1] was 0.4, the “Binding of serum 62 to linear peptides of protein X2” value [1] was 0.6 and the “Binding of serum 62 to looped/cyclic peptides of protein X2 of SARS-CoV Urbani” value [1] was 0.6. For the same sequence, the “Binding of serum London to linear peptides of protein X2” value [1] was 0.4, the “Binding of serum London to looped/cyclic peptides of protein X2 of SARS-CoV Urbani” value [1] was 0.9 and the “Binding of serum SARS-green to linear peptides of protein X2” value [1] was 0.5. The “Binding of serum SARS-green to looped/cyclic peptides of protein X2 of SARS-CoV Urbani” value [1] was 0.3, the “Binding of serum SARS-yellow to linear peptides of protein X2” value [1] was 0.7 and the “Binding of serum SARS-yellow to looped/cyclic peptides of protein X2 of SARS-CoV Urbani” value [1] was 0.4. The “Binding of Control Serum Blood-Bank to Looped peptides” value [2] was 0.5, the “Binding of Control serum Blood-bank to linear peptides” value [2] was 0.7 and the “Binding of Control serum LUMC to linear peptides” value [2] was 0.4. For the same sequence, the “Binding of Control serum LUMC to looped peptides” value [2] was 0.6, the “Binding of a rabbit serum to linear peptides” value [3] was 0.3 and the “Binding of a rabbit serum to looped peptides” value [3] was 0.4.
In the case of NACRIIMRCWLCWKC, the “Binding of serum 1a to looped/cyclic peptide (PEPSCAN-ELISA)” value [1] is reported as 0.6, the “Binding of serum 1b to looped/cyclic peptide (PEPSCAN-ELISA)” value [1] is reported as 0.5 and the “Binding of serum 2 to looped/cyclic peptide (PEPSCAN-ELISA)” value [1] is reported as 0.5. For the same sequence, the “Binding of serum 6 to looped/cyclic peptide (PEPSCAN-ELISA)” value [1] was 0.6, the “Binding of serum 37 to looped/cyclic peptide (PEPSCAN-ELISA)” value [1] was 0.5 and the “Binding of serum 62 to looped/cyclic peptide (PEPSCAN-ELISA)” value [1] was 0.7. For the same sequence, the “Binding of serum London to looped/cyclic peptide (PEPSCAN-ELISA)” value [1] was 0.3, the “Binding of serum SARS-green to looped/cyclic peptide (PEPSCAN-ELISA)” value [1] was 0.3 and the “Binding of serum SARS-yellow to looped/cyclic peptide (PEPSCAN-ELISA)” value [1] was 0.4. For the same sequence, the “Recognition of the peptide by sera of SARS-CoV infected individuals, and form (linear, looped/cyclic) in which it is recognized” value [1] was “recognized in linear form”, the “Binding of Control Serum Blood-Bank to Looped peptides” value [2] was 0.8 and the “Binding of Control serum Blood-bank to linear peptides” value [2] was 1.0. For the same sequence, the “Binding of Control serum LUMC to linear peptides” value [2] was 0.5, the “Binding of Control serum LUMC to looped peptides” value [2] was 0.6 and the “Recognition of the peptide by the rabbit serum” value [3] was “recognized”.
